Literature values, collected in patent US9456985B2, “Sustained-released product comprising a combination of a non-opioid amine and a non-steroidal, anti-inflammatory drug” (Upsher-Smith Laboratories, Inc., priority 2009, dated 2016).
Where a name gives a salt, the structure may show the parent alone.

Details: no test described

Structure (SMILES)	solubility (descriptive)
NC12CC3CC(CC(C3)C1)C2 [Amantadine hydrochloride]	freely soluble
CC12CC3CC(C)(C1)CC(N)(C3)C2 [memantine hydrochloride, Memantine hydrochloride]	soluble in water
